Test results taken from paper PMC5218480 (PLoS ONE, 2017).

Tested on: MV-4-11 cells
Test: Gene expression microarray analysis (Affymetrix PrimeView) and GSEA
Assay type: cell-based, human
Set-up: RFU PODN (11730768_x_at) / Fold change /veh PODN (11730768_x_at) / RFU LINC00158 (11744669_a_at) / Fold change /veh LINC00158 (11744669_a_at) / RFU DUSP10 (11751237_a_at) / Fold change /veh DUSP10 (11751237_a_at) / RFU ID3 (11757404_x_at) / Fold change /veh ID3 (11757404_x_at) / RFU PLEKHG5 (11737974_s_at) / Fold change /veh PLEKHG5 (11737974_s_at) / RFU LRRC4B (11730491_at) / Fold change /veh LRRC4B (11730491_at) / RFU GIMAP4 (11747438_a_at) / Fold change /veh GIMAP4 (11747438_a_at) / RFU KRT8 (11758183_x_at) / Fold change /veh KRT8 (11758183_x_at) / RFU CNN1 (11734310_a_at) / Fold change /veh CNN1 (11734310_a_at) / RFU VPS37D (11726825_at) / Fold change /veh VPS37D (11726825_at) / RFU C10orf10 (11716522_x_at) / Fold change /veh C10orf10 (11716522_x_at) / RFU KIR2DL2 /// KIR2DL4 /// KIR2DL5A /// KIR2DL5B /// KIR2DS1 /// KIR2DS2 /// KIR2DS3 /// KIR2DS4 /// KIR3DL3 /// KIR3DL3 /// KIR3DS1 (11738374_at) / Fold change /veh KIR2DL2 /// KIR2DL4 /// KIR2DL5A /// KIR2DL5B /// KIR2DS1 /// KIR2DS2 /// KIR2DS3 /// KIR2DS4 /// KIR3DL3 /// KIR3DL3 /// KIR3DS1 (11738374_at) / RFU C1QL1 (11718748_at) / Fold change /veh C1QL1 (11718748_at) / RFU TMPRSS4 (11747572_a_at) / Fold change /veh TMPRSS4 (11747572_a_at) / RFU HAMP (11756126_x_at) / Fold change /veh HAMP (11756126_x_at) / RFU RNFT2 (11725882_a_at) / Fold change /veh RNFT2 (11725882_a_at) / RFU NR4A2 (11747474_a_at) / Fold change /veh NR4A2 (11747474_a_at) / RFU ABCC12 (11746883_a_at) / Fold change /veh ABCC12 (11746883_a_at) / RFU TMEM136 (11760407_x_at) / Fold change /veh TMEM136 (11760407_x_at) / RFU CLDN22 /// WWC2 (11732394_at) / Fold change /veh CLDN22 /// WWC2 (11732394_at) / RFU HLA-DPB1 (11760878_x_at) / Fold change /veh HLA-DPB1 (11760878_x_at) / RFU SPINT1 (11716480_a_at) / Fold change /veh SPINT1 (11716480_a_at) / RFU GAP43 (11754022_s_at) / Fold change /veh GAP43 (11754022_s_at) / RFU A4GNT (11735810_at) / Fold change /veh A4GNT (11735810_at) / RFU PRB3 (11715151_x_at) / Fold change /veh PRB3 (11715151_x_at) / RFU TUBB4B (11761932_at) / Fold change /veh TUBB4B (11761932_at) / RFU CAPN14 (11732068_a_at) / Fold change /veh CAPN14 (11732068_a_at) / RFU TMCC2 (11721928_a_at) / Fold change /veh TMCC2 (11721928_a_at) / RFU IRGQ (11745062_a_at) / Fold change /veh IRGQ (11745062_a_at) / RFU FAM174B (11720279_a_at) / Fold change /veh FAM174B (11720279_a_at) / RFU TMPRSS4 (11748680_a_at) / Fold change /veh TMPRSS4 (11748680_a_at) / RFU FAM212B (11763350_a_at) / Fold change /veh FAM212B (11763350_a_at) / RFU PLEKHG5 (11743358_a_at) / Fold change /veh PLEKHG5 (11743358_a_at) / RFU ZSCAN30 (11745921_a_at) / Fold change /veh ZSCAN30 (11745921_a_at) / RFU CMKLR1 (11741424_a_at) / Fold change /veh CMKLR1 (11741424_a_at) / RFU LOC101060620 /// MAPK8IP1 (11723275_at) / Fold change /veh LOC101060620 /// MAPK8IP1 (11723275_at) / RFU SPTSSB (11747773_x_at) / Fold change /veh SPTSSB (11747773_x_at) / RFU PRSS12 (11739890_at) / Fold change /veh PRSS12 (11739890_at) / RFU BIN1 (11741810_x_at) / Fold change /veh BIN1 (11741810_x_at) / RFU WNT11 (11732464_a_at) / Fold change /veh WNT11 (11732464_a_at) / RFU C10orf10 (11716521_a_at) / Fold change /veh C10orf10 (11716521_a_at) / RFU C5orf56 (11738089_at) / Fold change /veh C5orf56 (11738089_at) / RFU CYB561 (11721691_x_at) / Fold change /veh CYB561 (11721691_x_at) / RFU ANKRD19P (11752326_a_at) / Fold change /veh ANKRD19P (11752326_a_at) / RFU OR2T12 /// OR2T33 /// OR2T8 (11738714_s_at) / Fold change /veh OR2T12 /// OR2T33 /// OR2T8 (11738714_s_at) / RFU VCAN (11748164_a_at) / Fold change /veh VCAN (11748164_a_at) / RFU JSRP1 (11732532_at) / Fold change /veh JSRP1 (11732532_at) / RFU KRTAP10-11 (11738290_x_at) / Fold change /veh KRTAP10-11 (11738290_x_at) / RFU MYO3A (11730013_a_at) / Fold change /veh MYO3A (11730013_a_at) / RFU EBF3 (11725865_a_at) / Fold change /veh EBF3 (11725865_a_at) / RFU CAMK2N1 (11719241_x_at) / Fold change /veh CAMK2N1 (11719241_x_at) / RFU C5orf56 (11738088_a_at) / Fold change /veh C5orf56 (11738088_a_at) / RFU OLFML3 (11715873_a_at) / Fold change /veh OLFML3 (11715873_a_at) / RFU LOC100653217 /// NTM (11731650_a_at) / Fold change /veh LOC100653217 /// NTM (11731650_a_at) / RFU MAPK11 (11762145_a_at) / Fold change /veh MAPK11 (11762145_a_at) / RFU FIZ1 (11724087_x_at) / Fold change /veh FIZ1 (11724087_x_at) / RFU OASL (11726364_x_at) / Fold change /veh OASL (11726364_x_at) / RFU SOX15 (11748057_x_at) / Fold change /veh SOX15 (11748057_x_at) / RFU CD79A (11719716_a_at) / Fold change /veh CD79A (11719716_a_at) / RFU HIST1H1D (11736915_at) / Fold change /veh HIST1H1D (11736915_at) / RFU CASKIN2 (11723855_a_at) / Fold change /veh CASKIN2 (11723855_a_at) / RFU LOC730098 (11760151_x_at) / Fold change /veh LOC730098 (11760151_x_at) / RFU OR4N2 (11742367_at) / Fold change /veh OR4N2 (11742367_at) / RFU PRRT2 (11749266_a_at) / Fold change /veh PRRT2 (11749266_a_at) / RFU SNX32 (11753110_a_at) / Fold change /veh SNX32 (11753110_a_at) / RFU CDHR5 (11726645_a_at) / Fold change /veh CDHR5 (11726645_a_at) / RFU RCAN1 (11760418_a_at) / Fold change /veh RCAN1 (11760418_a_at) / RFU FAM167A (11723789_a_at) / Fold change /veh FAM167A (11723789_a_at) / RFU FAM26E (11764081_at) / Fold change /veh FAM26E (11764081_at) / RFU ISYNA1 (11749810_s_at) / Fold change /veh ISYNA1 (11749810_s_at) / RFU ACY1 (11761880_at) / Fold change /veh ACY1 (11761880_at) / RFU 11764098_at / Fold change /veh 11764098_at / RFU SAMD14 (11745864_x_at) / Fold change /veh SAMD14 (11745864_x_at) / RFU NPB (11741838_a_at) / Fold change /veh NPB (11741838_a_at) / RFU TMPRSS6 (11731388_a_at) / Fold change /veh TMPRSS6 (11731388_a_at) / RFU KRTAP10-2 (11738614_at) / Fold change /veh KRTAP10-2 (11738614_at) / RFU ARHGAP8 /// PRR5-ARHGAP8 (11727945_x_at) / Fold change /veh ARHGAP8 /// PRR5-ARHGAP8 (11727945_x_at) / RFU KRTAP5-7 /// NADSYN1 (11734609_at) / Fold change /veh KRTAP5-7 /// NADSYN1 (11734609_at) / RFU RASL12 (11751679_a_at) / Fold change /veh RASL12 (11751679_a_at) / RFU CDKN2B (11736163_a_at) / Fold change /veh CDKN2B (11736163_a_at) / RFU PRF1 (11729649_at) / Fold change /veh PRF1 (11729649_at) / RFU, ZNF638 /// ZNF638-IT1 / Fold change vs veh, ZNF638 /// ZNF638-IT1 / RFU, PANK3 / Fold change vs veh, PANK3 / RFU, SH3YL1 / Fold change vs veh, SH3YL1 / RFU, ZEB2 / Fold change vs veh, ZEB2 / RFU, NRIP1 / Fold change vs veh, NRIP1 / RFU, PTTG1IP / Fold change vs veh, PTTG1IP / RFU, CAPN2 / Fold change vs veh, CAPN2 / RFU, MED14 / Fold change vs veh, MED14 / RFU, SNORA58 / Fold change vs veh, SNORA58 / RFU, C1orf63 / Fold change vs veh, C1orf63 / RFU, LRRFIP1 / Fold change vs veh, LRRFIP1 / RFU, NDUFAF7 / Fold change vs veh, NDUFAF7 / RFU, SLC12A2 / Fold change vs veh, SLC12A2 / RFU, IBTK / Fold change vs veh, IBTK / RFU, ESF1 / Fold change vs veh, ESF1 / Fold change vs veh, TMEM50B / RFU, TAOK1 / Fold change vs veh, TAOK1 / RFU, ACBD3 / Fold change vs veh, ACBD3 / RFU, TMA16 / Fold change vs veh, TMA16 / RFU, RWDD3 / Fold change vs veh, RWDD3 / RFU, BCAT1 / Fold change vs veh, BCAT1 / RFU, EDEM3 / Fold change vs veh, EDEM3 / RFU, TMEM33 / Fold change vs veh, TMEM33 / RFU, WDR75 / Fold change vs veh, WDR75 / RFU, AHCTF1 / Fold change vs veh, AHCTF1 / RFU, TFRC / Fold change vs veh, TFRC / RFU, ZDHHC17 / Fold change vs veh, ZDHHC17 / RFU, NOM1 / Fold change vs veh, NOM1 / RFU, ARL8B / Fold change vs veh, ARL8B / RFU, ZBTB11 / Fold change vs veh, ZBTB11 / RFU, TAMM41 / Fold change vs veh, TAMM41 / RFU, KIAA1704 /// LOC100996395 / Fold change vs veh, KIAA1704 /// LOC100996395 / RFU, ING1 / Fold change vs veh, ING1 / RFU, TRMT61B / Fold change vs veh, TRMT61B / RFU, FUBP3 / Fold change vs veh, FUBP3 / RFU, TP53 / Fold change vs veh, TP53 / RFU, TNKS2 / Fold change vs veh, TNKS2 / RFU, ZFP14 / Fold change vs veh, ZFP14 / RFU, ACTR2 / Fold change vs veh, ACTR2 / RFU, PPP3R1 / Fold change vs veh, PPP3R1 / RFU, PIK3R1 / Fold change vs veh, PIK3R1 / RFU, HNRNPA1 / Fold change vs veh, HNRNPA1 / RFU, RNF170 / Fold change vs veh, RNF170 / RFU, ZNF28 / Fold change vs veh, ZNF28 / RFU, RNGTT / Fold change vs veh, RNGTT / RFU, OGT / Fold change vs veh, OGT / RFU, BRD1 / Fold change vs veh, BRD1 / RFU, MARS / Fold change vs veh, MARS / RFU, ZNF655 / Fold change vs veh, ZNF655 / RFU, FAHD1 / Fold change vs veh, FAHD1 / RFU, BDP1 / Fold change vs veh, BDP1 / RFU, LRRCC1 / Fold change vs veh, LRRCC1 / RFU, ARID1A / Fold change vs veh, ARID1A / RFU, ZNF146 / Fold change vs veh, ZNF146 / RFU, ZNF330 / Fold change vs veh, ZNF330 / RFU, GPN3 / Fold change vs veh, GPN3 / RFU, C9orf123 / Fold change vs veh, C9orf123 / RFU, N4BP2L2 / Fold change vs veh, N4BP2L2 / RFU, ARFIP1 / Fold change vs veh, ARFIP1 / RFU, FAM179B / Fold change vs veh, FAM179B / RFU, BCL10 / Fold change vs veh, BCL10 / RFU, UHRF1BP1L / Fold change vs veh, UHRF1BP1L / RFU, BET1 / Fold change vs veh, BET1 / RFU, CNOT2 / Fold change vs veh, CNOT2 / RFU, ZNF268 / Fold change vs veh, ZNF268 / Fold change vs veh, ZNF507 / RFU, DGCR2 / Fold change vs veh, DGCR2 / RFU, WDSUB1 / Fold change vs veh, WDSUB1 / Fold change vs veh, HSP90B1 /// MIR3652 / RFU, ADSS / Fold change vs veh, ADSS / RFU, GK / Fold change vs veh, GK / RFU, ZNF148 / Fold change vs veh, ZNF148 / RFU, TAF9 / Fold change vs veh, TAF9 / RFU, SLC1A5 / Fold change vs veh, SLC1A5 / RFU, SLMO2 / Fold change vs veh, SLMO2 / RFU, ABCC4 / Fold change vs veh, ABCC4 / RFU, LOC101060439 /// RAP1B / Fold change vs veh, LOC101060439 /// RAP1B / RFU, RFX7 / Fold change vs veh, RFX7 / RFU, GTPBP10 / Fold change vs veh, GTPBP10 / RFU, CNEP1R1 / Fold change vs veh, CNEP1R1 / RFU, BIVM-ERCC5 /// ERCC5 / Fold change vs veh, BIVM-ERCC5 /// ERCC5 / RFU, ILF3 / Fold change vs veh, ILF3 / RFU 11762660_at / Fold change /veh 11762660_at / RFU VCAN (11757783_s_at) / Fold change /veh VCAN (11757783_s_at) / RFU DDX43 (11728927_at) / Fold change /veh DDX43 (11728927_at) / RFU KRT8 (11758188_x_at) / Fold change /veh KRT8 (11758188_x_at) / RFU NKD1 (11759106_at) / Fold change /veh NKD1 (11759106_at) / RFU SRD5A1 (11742802_a_at) / Fold change /veh SRD5A1 (11742802_a_at) / RFU TPSAB1 /// TPSB2 (11721975_s_at) / Fold change /veh TPSAB1 /// TPSB2 (11721975_s_at) / RFU GSTM3 (11746129_a_at) / Fold change /veh GSTM3 (11746129_a_at) / RFU IL23R (11737362_x_at) / Fold change /veh IL23R (11737362_x_at) / RFU TMEM51 (11727254_a_at) / Fold change /veh TMEM51 (11727254_a_at) / RFU PIWIL2 (11732686_x_at) / Fold change /veh PIWIL2 (11732686_x_at) / RFU ORM1 (11744905_x_at) / Fold change /veh ORM1 (11744905_x_at) / RFU CCDC152 (11743942_at) / Fold change /veh CCDC152 (11743942_at) / RFU ECM1 (11717891_a_at) / Fold change /veh ECM1 (11717891_a_at) / RFU IL23R (11748794_a_at) / Fold change /veh IL23R (11748794_a_at) / RFU TNFAIP8L3 (11732012_x_at) / Fold change /veh TNFAIP8L3 (11732012_x_at) / RFU MBOAT4 (11741988_at) / Fold change /veh MBOAT4 (11741988_at) / RFU 11764193_at / Fold change /veh 11764193_at / RFU TMEM53 (11763286_at) / Fold change /veh TMEM53 (11763286_at) / RFU MAGEB2 (11727129_at) / Fold change /veh MAGEB2 (11727129_at) / RFU TMEM200A (11744735_a_at) / Fold change /veh TMEM200A (11744735_a_at) / RFU CCDC152 (11751479_a_at) / Fold change /veh CCDC152 (11751479_a_at) / RFU FAM211A (11726209_a_at) / Fold change /veh FAM211A (11726209_a_at) / RFU RGS16 (11746705_a_at) / Fold change /veh RGS16 (11746705_a_at) / RFU VCAN (11755009_s_at) / Fold change /veh VCAN (11755009_s_at) / RFU RHOB (11743442_s_at) / Fold change /veh RHOB (11743442_s_at) / RFU RGS16 (11720943_a_at) / Fold change /veh RGS16 (11720943_a_at) / RFU RGS16 (11720944_at) / Fold change /veh RGS16 (11720944_at) / RFU, VPS4B / Fold change vs veh, VPS4B / RFU, CREB1 / Fold change vs veh, CREB1 / RFU, DNAJC13 / Fold change vs veh, DNAJC13 / RFU, GNAQ / Fold change vs veh, GNAQ / RFU, CDK5R1 / Fold change vs veh, CDK5R1 / RFU, ZRANB3 / Fold change vs veh, ZRANB3 / RFU, CUL4A / Fold change vs veh, CUL4A / RFU, CCNY / Fold change vs veh, CCNY / RFU, UFL1 / Fold change vs veh, UFL1 / RFU, COG3 / Fold change vs veh, COG3 / RFU, DIAPH2 / Fold change vs veh, DIAPH2 / RFU, SKA2 / Fold change vs veh, SKA2 / RFU, AFF3 / Fold change vs veh, AFF3 / RFU, LMF1 / Fold change vs veh, LMF1 / RFU, IPO11 / Fold change vs veh, IPO11 / RFU, DFFB / Fold change vs veh, DFFB / RFU, FOXP1 / Fold change vs veh, FOXP1 / RFU, CARD8 / Fold change vs veh, CARD8 / RFU, STRN3 / Fold change vs veh, STRN3 / RFU, ADK / Fold change vs veh, ADK / RFU, RASSF2 / Fold change vs veh, RASSF2 / RFU, WIPF1 / Fold change vs veh, WIPF1 / RFU, LARP1B / Fold change vs veh, LARP1B / RFU, RASA1 / Fold change vs veh, RASA1 / RFU, RB1 / Fold change vs veh, RB1 / RFU, PPFIA1 / Fold change vs veh, PPFIA1 / RFU, MAT2A / Fold change vs veh, MAT2A / RFU, CCT5 / Fold change vs veh, CCT5 / RFU, WDR92 / Fold change vs veh, WDR92 / RFU, CUX1 / Fold change vs veh, CUX1 / RFU, TTC7A / Fold change vs veh, TTC7A / RFU, TMEM135 / Fold change vs veh, TMEM135 / RFU, DEPTOR / Fold change vs veh, DEPTOR / RFU, CPM / Fold change vs veh, CPM / RFU, DNAJB6 / Fold change vs veh, DNAJB6 / RFU, CACNA2D3 / Fold change vs veh, CACNA2D3 / RFU, DTX4 / Fold change vs veh, DTX4 / RFU, TFCP2 / Fold change vs veh, TFCP2 / RFU, GMCL1 /// GMCL1P1 / Fold change vs veh, GMCL1 /// GMCL1P1 / RFU, AEBP2 / Fold change vs veh, AEBP2 / RFU, SNHG1 /// SNORD22 /// SNORD25 /// SNORD26 /// SNORD27 /// SNORD28 /// SNORD29 /// SNORD31 / Fold change vs veh, SNHG1 /// SNORD22 /// SNORD25 /// SNORD26 /// SNORD27 /// SNORD28 /// SNORD29 /// SNORD31 / Fold change (Aza/veh), C12orf56 (ProbeSet 11735607_a_at) / Fold change (ACY-1035/veh), C12orf56 (ProbeSet 11735607_a_at) / Fold change (Aza/veh), FGFR1OP (ProbeSet 11751329_s_at) / Fold change (ACY-1035/veh), FGFR1OP (ProbeSet 11751329_s_at) / Fold change (Aza/veh), VPS36 (ProbeSet 11739960_a_at) / Fold change (ACY-1035/veh), VPS36 (ProbeSet 11739960_a_at) / RFU SYPL1 (11715823_x_at) / Fold change /veh SYPL1 (11715823_x_at) / RFU IGFBP7 (11715501_s_at) / Fold change /veh IGFBP7 (11715501_s_at) / RFU REEP3 (11722064_at) / Fold change /veh REEP3 (11722064_at) / RFU IGLL1 (11728026_x_at) / Fold change /veh IGLL1 (11728026_x_at): dose or concentration left out as unconfirmed
Settings: ProbeSet 11753055_s_at; LIST B

In the case of `Nc1ncn([C@@H]2O[C@H](CO)[C@@H](O)[C@H]2O)c(=O)n1` [azacitidine], the “Fold change vs veh, LOC101060439 /// RAP1B” value is reported as 0.86.
